Experimental data from patent US9204646B2, “Pyrazole tetrahydronaphthyl carboxamides” (BAYER CROPSCIENCE AG, priority 2012, dated 2015).
Like-named read-outs stand apart in the source and are kept apart here.

How the values were obtained:
[1] = tested on: Uromyces appendiculatus; experiment: In vivo preventive test on Uromyces appendiculatus (bean rust); settings: preventive spray on bean plants, grading 11 days after contamination vs control plants
Protocol: Bean plants (“Saxa” variety), sown in starter cups on a 50/50 peat soil-pozzolana substrate and grown at 24° C., are treated at the 2-leaf stage (9 cm height) by spraying with the active ingredient prepared as described above. Plants, used as controls, are treated with the mixture of acetone/tween/DMSO/water not containing the active material. After 24 hours, the plants are contaminated by spraying the leaves with an aqueous suspension of Uromyces appendiculatus spores (150 000 spores per ml). […] The contaminated bean plants are incubated for 24 hours at 20° C. and at 100% relative humidity, and then for 10 days at 20° C. and at 70-80% relative humidity. Grading (% of efficacy) is carried out 11 days after the contamination, in comparison with the control plants.

[2] = Measurement of log P values by HPLC on reversed phase columns (EEC directive 79/831 Annex V.A8); assay type: physicochemical; settings: for logP: Table 1 active ingredients
[3] = tested on: Puccinia recondita; experiment: In vivo preventive test on Puccinia recondita (brown rust on wheat); settings: preventive spray on wheat plants, grading 12 days after contamination vs control plants
Protocol: Wheat plants (“Scipion” variety), sown in starter cups on a 50/50 peat soil-pozzolana substrate and grown at 22° C., are treated at the 1-leaf stage (10 cm height) by spraying with the active ingredient prepared as described above. Plants, used as controls, are treated with the mixture of acetone/tween/DMSO/water not containing the active material. After 24 hours, the plants are contaminated by spraying the leaves with an aqueous suspension of Puccinia recondita spores (100 000 spores per ml). […] The contaminated wheat plants are incubated for 24 hours at 20° C. and at 100% relative humidity, and then for 10 days at 20° C. and at 70-80% relative humidity. Grading (% of efficacy) is carried out 12 days after the contamination, in comparison with the control plants.

[4] = tested on: Alternaria brassicae; experiment: In vivo preventive test on Alternaria brassicae (leaf spot on radish); settings: preventive spray on radish plants, grading 6 days after contamination vs control plants
Protocol: Radish plants (“Pernod Clair” variety), sown in starter cups on a 50/50 peat soil-pozzolana substrate and grown at 17° C., are treated at the cotyledon stage by spraying with the active ingredient prepared as described above. Plants, used as controls, are treated with the mixture of acetone/tween/DMSO/water not containing the active material. After 24 hours, the plants are contaminated by spraying the cotyledons with an aqueous suspension of Alternaria brassicae spores (50 000 spores per ml). The spores are collected from a 15-day-old culture. The contaminated radish plants are incubated at 20° C. and at 100% relative humidity. Grading (% of efficacy) is carried out 6 days after the contamination, in comparison with the control plants.

[5] = tested on: Botrytis cinerea; experiment: In vivo preventive test on Botrytis cinerea (grey mould); settings: preventive spray on gherkin plants, grading 4 to 5 days after contamination vs control plants
Protocol: Gherkin plants (“Vert petit de Paris” variety), sown in starter cups on a 50/50 peat soil-pozzolana substrate and grown at 24° C., are treated at the Z11 cotyledon stage by spraying with the active ingredient prepared as described above. Plants, used as controls, are treated with the mixture of acetone/tween/DMSO/water not containing the active material. After 24 hours, the plants are contaminated by spraying the cotyledons with an aqueous suspension of cryopreserved Botrytis cinerea spores (50 000 spores per ml). The spores are suspended in a nutrient solution composed of 10 g/L of PDB, 50 g/L of D-Fructose, 2 g/L of NH4NO3 and 1 g/L of KH2PO4. The contaminated gherkin plants are incubated at 17° C. and at 90% relative humidity. Grading (% of efficacy) is carried out 4 to 5 days after the contamination, in comparison with the control plants.

[6] = tested on: Septoria tritici; experiment: In vivo preventive test on Septoria tritici (leaf spot on wheat); settings: dose of 500 ppm; preventive spray on wheat plants; grading 24 days after contamination vs control plants
Protocol: Wheat plants (“Scipion” variety), sown in starter cups on a 50/50 peat soil-pozzolana substrate and grown at 22° C., are treated at the 1-leaf stage (10 cm height) by spraying with the active ingredient prepared as described above. Plants, used as controls, are treated with the mixture of acetone/tween/DMSO/water not containing the active material. After 24 hours, the plants are contaminated by spraying the leaves with an aqueous suspension of cryopreserved Septoria tritici spores (500 000 spores per ml). The contaminated wheat plants are incubated for 72 hours at 18° C. and at 100% relative humidity, and then for 21 days at 90% relative humidity. Grading (% of efficacy) is carried out 24 days after the contamination, in comparison with the control plants.

[7] = tested on: Pyrenophora teres; experiment: In vivo preventive test on Pyrenophora teres (net blotch on barley); settings: preventive spray on barley plants, grading 14 days after contamination vs control plants
Protocol: Barley plants (“Plaisant” variety), sown in starter cups on a 50/50 peat soil-pozzolana substrate and grown at 22° C., are treated at the 1-leaf stage (10 cm height) by spraying with the active ingredient prepared as described above. Plants, used as controls, are treated with the mixture of acetone/tween/DMSO/water not containing the active material. After 24 hours, the plants are contaminated by spraying the leaves with an aqueous suspension of Pyrenophora teres spores (12 000 spores per ml). The spores are collected from a 12-day-old culture. The contaminated barley plants are incubated for 48 hours at 20° C. and at 100% relative humidity, and then for 12 days at 20° C. at 70-80% relative humidity. Grading (% of efficacy) is carried out 14 days after the contamination, in comparison with the control plants.

[8] = tested on: Sphaerotheca fuliginea; experiment: In vivo preventive test on Sphaerotheca fuliginea (powdery mildew on cucurbits); settings: preventive spray on gherkin plants, grading 12 days after contamination vs control plants
Protocol: Gherkin plants (“Vert petit de Paris” variety), sown in starter cups on a 50/50 peat soil-pozzolana substrate and grown at 24° C., are treated at the Z11 cotyledon stage by spraying with the active ingredient prepared as described above. Plants, used as controls, are treated with the mixture of acetone/tween/DMSO/water not containing the active material. After 24 hours, the plants are contaminated by spraying the cotyledons with an aqueous suspension of Sphaerotheca fuliginea spores (100 000 spores per ml). The spores are collected from infected plants. The contaminated gherkin plants are incubated at about 20° C. and at 70-80% relative humidity. Grading (% of efficacy) is carried out 12 days after the contamination, in comparison with the control plants.

[9] = method [a]: LC-MS at pH 2.7, 0.1% formic acid in water / acetonitrile, linear gradient 10% to 95% acetonitrile
[10] = reversed phase HPLC column, method [a]: LC-MS at pH 2.7, 0.1% formic acid in water / acetonitrile, linear gradient 10% to 95% acetonitrile, Table 2 intermediates of formula (III-a), read-out: logP

| logP [2, 9] | SMILES | Eff. % ([1]; dose of 500 ppm) | Eff. % ([3]; dose of 500 ppm) | Eff. % ([4]; dose of 500 ppm) | also measured |
| --- | --- | --- | --- | --- | --- |
| 4.01[a] | Cn1nc(C(F)F)c(C(=O)Nc2ccc(F)c3c2CCCC3(C)C)c1Cl [Example 16] | 100% | 97% |  |  |
| 2.86[a] | CON=C1CCCc2c(NC(=O)c3c(C(F)F)nn(C)c3F)cccc21 [Example 19] |  |  | 96% | Eff. % ([5]; dose of 500 ppm): 96% |
|  | CC1(C)CCc2c(N)cccc2C1 [III-a-12, 6,6-dimethyl-5,6,7,8-tetrahydronaphthalen-1-amine] |  |  |  | chromatographic logP [2, 10]: 1.86 |
| 3.92[a] | CC1CCC(C)(C)c2cccc(NC(=O)c3c(C(F)F)nn(C)c3F)c21 (racemic) [Example 3] | 100% | 94% | 93% | Eff. % ([5]; dose of 500 ppm): 100% |
| 4.14[a] | C=C1c2cccc(NC(=O)c3c(C(F)F)nn(C)c3Cl)c2CCC1(C)C [Example 5] | 100% | 94% |  | Eff. % ([5]; dose of 500 ppm): 93% |
| 4.11[a] | Cn1nc(C(F)F)c(C(=S)Nc2cccc3c2CCC(C)(C)C3)c1Br [Example 31] |  |  |  |  |
| 3.9[a] | Cn1nc(C(F)F)c(C(=O)Nc2cccc3c2CC(C)(C)CC3)c1Cl [Example 14] | 99% | 100% | 71% | Eff. % [6]: 90%; Eff. % ([7]; dose of 500 ppm): 97%; Eff. % ([8]; dose of 500 ppm): 98% |
| 3.13[a] | CON=C1CCCc2c(NC(=O)c3c(C(F)F)nn(C)c3Br)cccc21 [Example 26] |  |  |  |  |
| 4.09[a] | CC1CCc2c(NC(=O)c3c(C(F)F)nn(C)c3Cl)cccc2C1C (centres unmarked) [Example 7] | 100% | 100% | 97% |  |
| 4.29[a] | CC1CCc2c(NC(=O)c3c(C(F)F)nn(C)c3Cl)cccc2C1(C)C (racemic) [Example 15] | 95% | 98% |  | Eff. % [6]: 75%; Eff. % ([8]; dose of 500 ppm): 70% |
|  | CC1(C)CCCc2c(N)cccc21 [III-a-1, 5,5-dimethyl-5,6,7,8-tetrahydronaphthalen-1-amine] |  |  |  | chromatographic logP [2, 10]: 1.69 |
| 3.31[a] | CCON=C1CCCc2c(NC(=O)c3c(C(F)F)nn(C)c3F)cccc21 [Example 18] | 81% |  | 83% | Eff. % ([7]; dose of 500 ppm): 92% |
| 3.44[a] | Cn1nc(C(F)F)c(C(=O)Nc2cccc3c2C(C)(C)CCC3)c1F [Example 29] |  |  |  |  |
| 3.83[a] | CC1CCc2c(NC(=O)c3c(C(F)F)nn(C)c3F)cccc2C1C (centres unmarked) [Example 8] | 99% | 100% | 97% | Eff. % ([7]; dose of 500 ppm): 71%; Eff. % ([8]; dose of 500 ppm): 85% |
|  | Cn1nc(C(F)F)c(C(=S)Nc2cccc3c2CCC(C)(C)C3)c1Cl [Example 33, 5-chloro-3-(difluoromethyl)-N-(6,6-dimethyl-5,6,7,8-tetrahydronaphthalen-1-yl)-1-methyl-1H-pyrazole-4-carbothioamide] |  |  |  | Eff. % ([1]; dose of 100 ppm): 99%; Eff. % ([4]; dose of 100 ppm): 75%; chromatographic logP ([2]; pH 2.7): 4.11; Eff. % ([3]; dose of 100 ppm): 94% |
| 4.24[a] | Cn1nc(C(F)F)c(C(=S)Nc2ccc(F)c3c2CCCC3(C)C)c1Cl [Example 17] | 100% | 100% |  |  |
| 3.72[a] | Cn1nc(C(F)F)c(C(=O)Nc2cccc3c2CC(C)(C)CC3)c1F [Example 13] | 100% | 97% |  | Eff. % [6]: 95%; Eff. % ([7]; dose of 500 ppm): 75%; Eff. % ([8]; dose of 500 ppm): 98% |
| 3.99[a] | Cn1nc(C(F)F)c(C(=S)Nc2cccc3c2CCC(C)(C)C3)c1F [Example 32] |  |  |  | Eff. % ([1]; dose of 100 ppm): 97%; Eff. % ([4]; dose of 100 ppm): 75%; Eff. % ([3]; dose of 100 ppm): 94%; Eff. % ([5]; dose of 100 ppm): 73%; Eff. % ([7]; dose of 100 ppm): 83%; Eff. % ([8]; dose of 100 ppm): 98% |
| 4.04[a] | Cn1nc(C(F)F)c(C(=O)Nc2cccc3c2CCC(C)(C)C3)c1Br [Example 23] | 96% | 79% |  |  |
| 3.09[a] | CON=C1CCCc2c(NC(=O)c3c(C(F)F)nn(C)c3Cl)cccc21 [Example 28] |  |  |  |  |
| 3.69[a] | Cn1nc(C(F)F)c(C(=O)Nc2cccc3c2C(C)(C)CCC3)c1Cl [Example 27] |  |  |  |  |
| 3.76[a] | Cn1nc(C(F)F)c(C(=O)Nc2ccc(F)c3c2CCCC3(C)C)c1F [Example 24] | 100% | 97% | 75% |  |
| 4.39[a] | CC1c2cccc(NC(=O)c3c(C(F)F)nn(C)c3Cl)c2CCC1(C)C (racemic) [Example 11] | 100% | 98% |  |  |
| 4.14[a] | CC1CCC(C)(C)c2cccc(NC(=O)c3c(C(F)F)nn(C)c3Cl)c21 (racemic) [Example 4] | 99% | 94% | 92% |  |
| 3.55[a] | CCON=C1CCCc2c(NC(=O)c3c(C(F)F)nn(C)c3Cl)cccc21 [Example 21] |  | 94% |  | Eff. % ([7]; dose of 500 ppm): 75% |
| 3.57[a] | CCON=C1CCCc2c(NC(=O)c3c(C(F)F)nn(C)c3Br)cccc21 [Example 20] |  |  |  |  |
